From patent US6489307B1, “Antisense compositions targeted to β1-adrenoceptor-specific mRNA and methods of use” (University of Florida, priority 1998, dated 2002)
Where “and” joins values, the source holds several entries; their conditions need not be identical. Identical values can stand only once. Entries after “also recorded” stand apart in the source; their conditions may differ.

What was measured:
[1] = test system: SHRs; experiment: Telemetric monitoring of conscious SHRs during dobutamine infusion; format: in vivo, rat (SHR)
Protocol: Two days after catherization of the jugular vein, control values were taken and 1 mg/kg β1-AS-ODN was injected. 48 hr later, rats were tested for the effect of β1-AS-ODN. The rats were allowed to recover until all the cardiovascular parameters returned to control values. […] For β1-stimulation, SHRs were infused with dobutamine (β1-selective agonist) through a jugular vein catheter at 5, 10, 20, and 40 μg·kg^−1·min.^−1. Each dose was given for 5 min. continuously and at 1-hr intervals until all the cardiovascular parameters returned to baseline values so as to avoid the effect of tachyphylaxis. BP and HR were sampled every 1 min. dP/dtmax was calculated from the slope of the rising pulse-pressure curve and determined every 1 min. The difference between values at each dose and baseline was denoted as Δ.
Two days after catheterization of jugular vein, control values were taken and 1 mg/kg β1-AS-ODN was injected. Forty-eight hr later, rats were tested for the effect of β1-AS-ODN. The rats were allowed to recover until all the cardiovascular parameters returned to control values. […] For β1-stimulation, SHR were infused with dobutamine (β1-selective agonist) through jugular vein catheter at 5, 10, 20, 40 μg/kg/min. Each dose was given for 5 min continuously and at 1-hr intervals until all cardiovascular parameters returned to baseline so as to avoid the effect of tachyphylaxis. BP and HR were sampled every min. dP/dtmax was calculated from the slope of the rising pulse pressure curve and determined every min. The difference between values at each dose and baseline was denoted as Δ.

[2] = test system: SHRs; format: in vivo, rat (SHR)
Protocol: (§1) Each rat cage was placed on a receiver (RLA 1020, Data Sciences, St. Paul, Minn.) for measurement of cardiovascular parameters. Data were collected with a computer-based data acquisition program (Dataquest Lab-PRO3.0; Data Sciences). BP and HR were measured every 10 min. and averaged every 1 to 24 hrs. Before treatment, SHRs were monitored for a week to get a stable baseline.
as §1, with “(RLA1020,” for “(RLA 1020,”, “Sciences)” for “Sciences, St. Paul, Minn.)”, “LabPRO3.0;” for “Lab-PRO3.0;”, “min” for “min.”, “hr.” for “hrs.”, “SHR” for “SHRs”

[3] = test system: isolated rat heart; experiment: Isolated perfused heart model, myocardial ischemia-reperfusion; format: in vivo, Sprague-Dawley rats; settings: 2 mg/kg 6 hr before
Protocol: Male Sprague-Dawley rats weighing 200-250 g were injected intravenously with either AS-ODNs (n=7) or IN-ODNs (n=7) at a dose of 200 μg/rat 4 days before excising the hearts. DOTAP/DOPE liposomes (700 μg/rat) were given along with ODNs.
The hearts were excised rapidly and placed in ice-cold Kreb-Henseleit buffer (mmol/L: NaCl 118, KCl 4.7, KH2PO4 1.2, MgSO4 1.2, CaCl2 1.25, NaHCO3 25, and glucose 11, pH 7.4). Within one min, the hearts were transferred to an isolated perfusion apparatus and perfused via the aorta with oxygen-saturated (95% O2+5% CO2) Kreb-Henseleit buffer kept at 37° C. with the use of a MasterFlex pump (model 7015-21, Cole-Palmer Instrument Co.) according to the modified Langendroff procedure (Yang et al., 1998; Neely and Rovetto, 1975). The heart was placed in a semi-closed circulating water-warmed (37° C.) air chamber, paced atrially with a Medtronic 5320 pacemaker at a rate of 300 bpm, and perfused at a constant flow (5.5-6.0 ml/per min). Coronary perfusion pressure (CPP) was measured via a catheter placed just proximal to the aorta and connected to a Gould Statham P23ID pressure transducer. A latex balloon filled with water and connected to a Gould Statham P23ID pressure transducer was inserted in the left ventricle through the left atrium to measure left ventricular end-diastolic pressure (LVEDP), left ventricular systolic pressure (LVSP), and developed left ventricular pressure (dLVP) (dLVP=LVSP−LVEDP). LVEDP during equilibration was set at 5 to 7 mmHg. All measurements were continuously recorded on a 4-channel record (Astro-Med).
Six hearts from saline-treated rats were continuously perfused with Kreb-Henseleit buffer for 80 min and served as sham control. Hearts from other rats, after 20 min of equilibration, were subjected to 30 min of ischemia followed by 30 min of reperfusion. After completion of the study, hearts were frozen in liquid-nitrogen for β1-AR analysis by binding assay, β1-AR protein analyses by Western blot, β1-AR mRNA analysis by reverse transcription-polymerase chain reaction (RT-PCR™), and measurement of MDA.
The protective effects of β1-AS-ODNs were tested in a rat model of myocardial ischemia-reperfusion. Five groups of SD rats were studied. Sham controls (n=6) were injected with saline and perfused continuously for 80 min without ischemia/reperfusion (I/R). In other groups, hearts were perfused for 20 min and subjected to global ischemia (30 min) followed by reperfusion (30 min). […] AS-ODN+I/R (n=7) or INV-ODN+I/R (n=7) were injected iv. with 1 mg/kg β1-AS-ODN or INV-ODN 4 days before the I/R study was performed.

[4] = test system: MDA (lipid peroxidation); experiment: MDA levels in myocardium after ischemia-reperfusion; format: in vivo, Sprague-Dawley rats; settings: pretreatment before ischemia-reperfusion; vs saline
Protocol: Malondialdehyde (MDA) levels in myocardium were measured in duplicate by a modification of the method of Ohkawa et al., (1979). Briefly, the ventricular tissues were homogenized. The assay mixture consisted of 0.1 ml of the tissue homogenate, 0.4 ml of 0.9% NaCl, 0.5 ml of 3% sodium dodecylsulfate, 3 ml of TBA (thiobarbituric acid reagent, containing equal parts of 0.8% aqueous thiobarbituric acid and acetic acid) and was heated for 75 min at 95° C. Thereafter, 1 ml cold 0.9% NaCl was added to the mixture, which was cooled and extracted with 5 ml n-butanol. After centrifugation at 3,000 rpm for 15 min, the butanol phase was assayed spectrophotometrically at 532 nm. Tetramethoxypropane (in amounts of 0, 0.1, 0.2, 0.4, 0.8, 1.0 nmole) served as external standard. MDA levels in myocardium were expressed in μmol/g tissue.

[5] = test system: β1-AR protein; experiment: Western blot of β1-AR protein in myocardium; format: in vivo, Sprague-Dawley rats; settings: Western analysis
Protocol: Myocardial tissues were homogenized and lysed in boiling lysis buffer (1% SDS, 0.1% Triton X-100®, and 10 mmol/L Tris-HCl, pH 7.4) and centrifuged at 10,000 RPM for 30 minutes at 4° C. The lysate protein from myocardial tissues (20 μg/lane) was separated by 8% SDS-PAGE using a Bio-Rad Mini-Protean cell, transferred to nitrocellulose membrane (Amersham). After incubation in blocking solution (4% non-fat milk, Sigma), membranes were incubated with 1:1000 dilation primary antibody (polycolonal antibody to β1-AR, Santa Cruz Biotechnology) for overnight at 4° C. Membranes were washed and incubated with 1:2000 dilution second antibody (Amersham) for one hr. The membranes were detected with the ECL system, as described previously (Yang et al, 1998; Li et al., 1999).

[6] = test system: β1-AR mRNA; experiment: RT-PCR of β1-AR mRNA in myocardium; format: in vivo, Sprague-Dawley rats; settings: adjusted for GAPDH
Protocol: Total RNA was isolated from rat myocardium with the single step acid-guanidinum thiocyanate-phenol-chloroform method and quantified (Chomcznski and Sacchi, 1987). One μg of total RNA was reverse transcribed with oligo-dT (Promega) and M-MLV reverse transcriptase (Promega) at 37° C. for one hr. 1.5 μl of RT material was amplified with Taq DNA polymerase (Promega) using a primer pair specific to β1-AR:
PCR™ product was 432 base pairs. For PCR, 35 cycles were used at 95° C. for one minute, 60° C. for one minute, and 72° C. for one min. The RT-PCR™ amplified samples were visualized on 1.8% agarose gels using ethidium bromide. A primer pair of rat GAPDH was used as control:
For PCR™, 35 cycles were used at 95° C. for one min, 60° C. for one min, 72° C. for one min. PCR™ product was 504 base pairs. Relative intensity of bands of interest were analyzed by NSF-300G Scanner (Microtek) (Yang et al., 1998; Li et al., 1999).

SMILES	effect on SBP ([1]; higher infusion speed)	elevation of SBP ([1]; low infusion speed)	basal (resting) HR ([1]; 1 mg/kg, control 365±8) [bpm]	time until inotropic and chronotropic effects of dobutamine returned to control levels ([1]; after 1 mg/kg administration) [h]	duration of hypotensive effect ([2]; 1 mg/kg i.v.) [h]	onset of hypotensive effect after injection ([2]; 1 mg/kg i.v.) [min]	duration of action ([2]; comparison with β1-AS-ODN)	bradycardia ([2]; rat, in vivo)	increase in CPP and LVEDP induced by ischemia-reperfusion [3]	ischemia-reperfusion-induced change in LVSP and dLVP [3]	increase in MDA levels in the myocardium [4]	ischemia-reperfusion-mediated increase in β1-AR protein expression [5]	increase of mRNA for β1-AR in myocardium [6]
CC(CCc1ccc(O)cc1)NCCc1ccc(O)c(O)c1 (stereo not shown) [Dobutamine, dobutamine]	reduced SBP; also recorded: reduced SPB	5 to 8 mm Hg and 5-8 mm Hg	–	–	–	–	–	–	–	–	–	–	–
CC(C)NCC(O)COc1ccc(CC(N)=O)cc1 (stereo not shown) [atenolol, reference compound]	–	–	295±12	≤ 24	10	20	less than 1 day	appreciable bradycardia	reduced the increase	modestly attenuated	attenuated the increase	no effect	not significantly affected
